Source: US4689326A, “Process for controlling hyperlipidemia” (Research Corporation, priority 1985, dated 1987)

Tests used:
[1] = biological target: T1, Cholesterol-7 Hydroxylase (Mus musculus, UniProt Q64505); assay: In vitro enzyme activity, liver homogenate: cholesterol-7 hydroxylase; type: biochemical, CF1 male mouse; details: ± SD, N = 6, read-out: Percent Control, in vitro enzyme activity
T1 construct: 10% homogenates of CF1 male mouse liver; from tissue; host or cells: CF1 male mouse liver, 10% homogenate
T1 sequence (Q64505 whole entry): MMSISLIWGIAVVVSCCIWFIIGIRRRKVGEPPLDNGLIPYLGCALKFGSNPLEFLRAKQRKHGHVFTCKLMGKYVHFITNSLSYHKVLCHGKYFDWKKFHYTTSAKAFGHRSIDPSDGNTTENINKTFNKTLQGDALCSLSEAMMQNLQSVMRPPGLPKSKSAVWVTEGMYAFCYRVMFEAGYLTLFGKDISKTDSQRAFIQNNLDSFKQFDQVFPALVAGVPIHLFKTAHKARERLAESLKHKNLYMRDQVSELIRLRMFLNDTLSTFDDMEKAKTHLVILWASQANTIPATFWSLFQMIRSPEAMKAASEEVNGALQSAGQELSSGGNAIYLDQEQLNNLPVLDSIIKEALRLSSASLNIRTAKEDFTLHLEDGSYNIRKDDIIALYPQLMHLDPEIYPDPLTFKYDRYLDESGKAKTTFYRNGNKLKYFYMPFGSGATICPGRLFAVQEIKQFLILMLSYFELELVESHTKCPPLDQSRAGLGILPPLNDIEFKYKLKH
Description: (§1) In vitro enzymatic studies were undertaken using 10% homogenates of CF1 male mouse liver with […] of compound 3,4,5,6-dibenzohomopiperidine. In addition, in vivo enzymatic studies were performed, again using 10% liver homogenates (prepared in 0.25 M sucrose plus 0.001 M (ethylenedinitrilo)-tetraacetic acid, ph 7.25 from CF1 male mice obtained after administering 3,4,5,6-dibenzohomopiperidine for 16 days at a concentration ranging from 10 to 60 mg/kg/day, intraperitoneally.
(§2) The following enzyme activities were determined by following standard literature procedures: acetyl coenzyme synthetase; adenosine triphosphate dependent citrate lyase; mitochondrial citrate exchange; cholesterol/7 hydroxylase; 3-hydroxy-3-methyl-glutaryl coenzyme A reductase; acetyl coenzyme A carboxylase activity; fatty acid synthetase activity; sn-glycerol-3-phosphate acyl transferase activity; phosphatidate phosphohydrolase activity; cholesterol acyl transferase; and heparin activated hepatic lypoprotein lipase. Protein was determined for all enzyme assays by the Lowry et al. technique (J. Biol. Chem, 193, 265 (1951)).

Fatty Acid Synthetase = biological target: T2, Fatty Acid Synthetase (Mus musculus, UniProt P19096); assay: In vitro enzyme activity, liver homogenate: fatty acid synthetase; type: biochemical, CF1 male mouse; details: ± SD, N = 6, read-out: Percent Control, in vitro enzyme activity
T2 construct: 10% homogenates of CF1 male mouse liver; from tissue; host or cells: CF1 male mouse liver, 10% homogenate
T2 sequence (P19096 whole entry): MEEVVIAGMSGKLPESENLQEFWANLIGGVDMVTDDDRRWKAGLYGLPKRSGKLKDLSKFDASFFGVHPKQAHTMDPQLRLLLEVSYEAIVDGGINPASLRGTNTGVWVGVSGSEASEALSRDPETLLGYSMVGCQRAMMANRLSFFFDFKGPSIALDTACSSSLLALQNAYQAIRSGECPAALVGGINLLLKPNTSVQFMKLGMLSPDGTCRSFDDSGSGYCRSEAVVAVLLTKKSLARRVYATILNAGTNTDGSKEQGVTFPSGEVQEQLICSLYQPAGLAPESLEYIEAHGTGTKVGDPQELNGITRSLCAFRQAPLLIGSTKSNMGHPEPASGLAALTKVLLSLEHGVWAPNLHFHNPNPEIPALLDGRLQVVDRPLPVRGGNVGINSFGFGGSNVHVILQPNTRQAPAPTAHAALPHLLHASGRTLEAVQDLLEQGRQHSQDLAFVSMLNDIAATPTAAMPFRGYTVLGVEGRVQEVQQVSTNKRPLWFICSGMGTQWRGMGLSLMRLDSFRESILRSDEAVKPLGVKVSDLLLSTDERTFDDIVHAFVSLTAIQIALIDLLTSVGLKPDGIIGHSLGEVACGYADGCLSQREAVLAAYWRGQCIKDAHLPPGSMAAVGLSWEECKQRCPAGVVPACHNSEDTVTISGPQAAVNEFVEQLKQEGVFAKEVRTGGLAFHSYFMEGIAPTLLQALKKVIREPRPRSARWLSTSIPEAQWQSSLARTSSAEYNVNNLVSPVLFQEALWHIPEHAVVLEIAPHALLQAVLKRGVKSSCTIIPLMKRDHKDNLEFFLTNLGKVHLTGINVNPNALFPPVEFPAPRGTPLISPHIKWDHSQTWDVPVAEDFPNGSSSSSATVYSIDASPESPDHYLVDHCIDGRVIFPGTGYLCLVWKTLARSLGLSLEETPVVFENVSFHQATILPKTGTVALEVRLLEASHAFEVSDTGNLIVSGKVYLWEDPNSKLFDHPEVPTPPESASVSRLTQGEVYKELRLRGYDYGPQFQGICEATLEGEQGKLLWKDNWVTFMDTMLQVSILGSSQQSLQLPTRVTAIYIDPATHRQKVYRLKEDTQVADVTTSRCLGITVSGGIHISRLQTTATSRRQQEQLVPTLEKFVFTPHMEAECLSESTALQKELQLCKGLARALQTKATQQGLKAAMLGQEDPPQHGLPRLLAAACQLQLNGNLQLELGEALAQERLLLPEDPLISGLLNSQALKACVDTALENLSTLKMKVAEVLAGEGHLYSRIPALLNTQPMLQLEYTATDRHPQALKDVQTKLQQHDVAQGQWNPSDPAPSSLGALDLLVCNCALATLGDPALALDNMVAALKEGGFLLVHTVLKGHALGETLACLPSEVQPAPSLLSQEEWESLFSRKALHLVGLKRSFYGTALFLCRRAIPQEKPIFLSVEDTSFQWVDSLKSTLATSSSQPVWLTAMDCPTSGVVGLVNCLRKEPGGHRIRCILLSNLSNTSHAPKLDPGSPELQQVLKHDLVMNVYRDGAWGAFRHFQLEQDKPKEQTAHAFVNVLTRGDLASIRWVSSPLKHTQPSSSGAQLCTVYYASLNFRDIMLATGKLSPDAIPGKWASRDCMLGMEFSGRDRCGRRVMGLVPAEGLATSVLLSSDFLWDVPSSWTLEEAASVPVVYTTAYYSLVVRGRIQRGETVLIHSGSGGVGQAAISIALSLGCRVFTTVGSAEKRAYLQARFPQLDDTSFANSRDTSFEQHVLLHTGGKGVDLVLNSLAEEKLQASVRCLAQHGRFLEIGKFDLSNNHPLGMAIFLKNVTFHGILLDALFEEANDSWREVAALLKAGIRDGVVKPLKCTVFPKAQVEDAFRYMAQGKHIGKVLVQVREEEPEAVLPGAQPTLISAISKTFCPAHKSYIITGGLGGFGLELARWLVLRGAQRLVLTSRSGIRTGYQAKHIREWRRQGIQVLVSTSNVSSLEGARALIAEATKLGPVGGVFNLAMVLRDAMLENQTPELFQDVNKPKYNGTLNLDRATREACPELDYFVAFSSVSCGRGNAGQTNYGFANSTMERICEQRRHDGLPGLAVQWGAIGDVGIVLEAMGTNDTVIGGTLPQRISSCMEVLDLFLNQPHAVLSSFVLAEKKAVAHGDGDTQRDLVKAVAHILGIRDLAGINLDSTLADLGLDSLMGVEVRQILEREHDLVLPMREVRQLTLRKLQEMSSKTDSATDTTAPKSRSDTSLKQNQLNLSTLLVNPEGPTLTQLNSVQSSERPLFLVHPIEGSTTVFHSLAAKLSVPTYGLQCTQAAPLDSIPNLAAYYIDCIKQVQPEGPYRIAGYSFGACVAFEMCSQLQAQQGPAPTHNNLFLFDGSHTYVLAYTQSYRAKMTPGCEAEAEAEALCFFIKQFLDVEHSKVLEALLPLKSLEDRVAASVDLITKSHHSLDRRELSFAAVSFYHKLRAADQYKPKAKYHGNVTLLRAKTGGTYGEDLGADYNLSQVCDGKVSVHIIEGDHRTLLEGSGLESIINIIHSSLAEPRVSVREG
Description: as §1, §2

[2] = biological target: T3, Hepatic Lipoprotein Lipase (Mus musculus, UniProt P27656); assay: In vitro enzyme activity, liver homogenate: hepatic lipoprotein lipase; type: biochemical, CF1 male mouse; details: ± SD, N = 6, read-out: Percent Control, in vitro enzyme activity
T3 construct: 10% homogenates of CF1 male mouse liver; from tissue; host or cells: CF1 male mouse liver, 10% homogenate
T3 sequence (P27656 22-510): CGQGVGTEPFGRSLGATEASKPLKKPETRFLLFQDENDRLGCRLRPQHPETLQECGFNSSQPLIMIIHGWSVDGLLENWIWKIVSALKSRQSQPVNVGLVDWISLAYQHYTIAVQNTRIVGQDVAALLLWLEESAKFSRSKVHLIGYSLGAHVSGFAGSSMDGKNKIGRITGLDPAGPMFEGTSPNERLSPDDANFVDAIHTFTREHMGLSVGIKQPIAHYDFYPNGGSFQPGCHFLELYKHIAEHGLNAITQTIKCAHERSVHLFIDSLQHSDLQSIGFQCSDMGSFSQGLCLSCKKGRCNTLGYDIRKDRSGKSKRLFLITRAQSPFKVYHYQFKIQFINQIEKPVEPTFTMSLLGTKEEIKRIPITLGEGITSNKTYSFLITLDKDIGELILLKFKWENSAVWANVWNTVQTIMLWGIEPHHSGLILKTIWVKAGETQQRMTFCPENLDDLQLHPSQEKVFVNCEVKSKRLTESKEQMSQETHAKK
Description: as §1, §2

HMG CoA Reductase = assay: In vivo enzyme activity, liver of treated mice: HMG CoA reductase; parameters: species or system CF1 male mice; details: 16 days, ± SD
Description: as §1, §2

[3] = system: Phosphatidate Phosphohydrolase; assay: In vivo enzyme activity, liver of treated mice: phosphatidate phosphohydrolase; parameters: species or system CF1 male mice; details: 16 days, ± SD
Description: as §1, §2

[4] = system: liver, small intestine and fecal materials; assay: Lipid Extraction Studies in Mice, Example 10; type: in vivo, CF1 male mice; details: ± SD
Description: The CF1 male mice that had been administered compound 3,4,5,6-dibenzohomopiperidine at four dosage levels as well as the control mice, were sacrificed and the liver, small intestine and fecal materials (24 hour collection) were removed, extracted and analyzed for cholesterol level, triglycerides level, neutral lipid content and phospholipid content. Table 8 reports the decrease in measured levels of these concentrations as a percentage of the level in the control. The control, it is noted, is always 100%.

Chylomicrons = assay: Lipoprotein fractions in Rats, Example 11: chylomicrons; type: in vivo, Sprague Dawley male rats; details: oral 20 mg/kg/day, fourteen days, ± SD
Description: A group of six Sprague Dawley male rats were treated with 20 mg/kg/day of 3,4,5,6-dibenzohomopiperidine. The treatment was applied orally. An equal number of Sprague Dawley male rats, having approximately the same weight, were utilized as an untreated control. At the end of fourteen days the control and treated rats were sacrificed. Blood was collected from the abdominal aorta and lipoprotein fractions were obtained by the method of Hatch and Lees [Adv. Lipid Rees., 6, 1 (1968)] and Havel et al. [J. Clin Invest., 34, 1345 (1955)]. Each of the fractions were analyzed for cholesterol, triglycerides, neutral lipids, phospholipids and protein levels.

## c1ccc2c(c1)CNCc1ccccc1-2 [Compound 3, 3,4,5,6-dibenzohomopiperidine]
[1]; 50 μM
  remaining activity at 50 µM: 68 ± 7%
[1]; 100 μM
  remaining activity at 100 µM: 72 ± 5%
[1]; 200 μM
  remaining activity at 200 µM: 98 ± 7%
Fatty Acid Synthetase; 50 μM
  remaining activity at 50 µM: 91 ± 7%
Fatty Acid Synthetase; 100 μM
  remaining activity at 100 µM: 92 ± 8%
Fatty Acid Synthetase; 200 μM
  remaining activity at 200 µM: 101 ± 9%
[2]; 50 μM
  remaining activity at 50 µM: 90 ± 7%
[2]; 100 μM
  remaining activity at 100 µM: 89 ± 6%
[2]; 200 μM
  remaining activity at 200 µM: 72 ± 5%
HMG CoA Reductase; 10 mg/kg/day ip
  Percent Control, in vivo enzyme activity: 123 ± 5%
HMG CoA Reductase; 20 mg/kg/day ip
  Percent Control, in vivo enzyme activity: 133 ± 9%
HMG CoA Reductase; 40 mg/kg/day ip
  Percent Control, in vivo enzyme activity: 146 ± 7%
HMG CoA Reductase; 60 mg/kg/day ip
  Percent Control, in vivo enzyme activity: 124 ± 6%
[3]; 10 mg/kg/day ip
  Percent Control, in vivo enzyme activity: 51 ± 4%
[3]; 20 mg/kg/day ip
  Percent Control, in vivo enzyme activity: 47 ± 9%
[3]; 40 mg/kg/day ip
  Percent Control, in vivo enzyme activity: 81 ± 6%
[3]; 60 mg/kg/day ip
  Percent Control, in vivo enzyme activity: 100 ± 6%
[4]; 20 mg/kg
  Cholesterol, concentration as a function of control: 55 ± 5%
  Lipid wt, concentration as a function of control: 62 ± 6%
  Neutral lipid, concentration as a function of control: 50 ± 5%
  Phospholipid, concentration as a function of control: 100 ± 7%
  Protein, concentration as a function of control: 95 ± 8%
  Triglyceride, concentration as a function of control: 37 ± 4%
[4]; 40 mg/kg
  Cholesterol, concentration as a function of control: 114 ± 8%
  Lipid wt, concentration as a function of control: 112 ± 9%
  Neutral lipid, concentration as a function of control: 95 ± 6%
  Phospholipid, concentration as a function of control: 84 ± 7%
  Protein, concentration as a function of control: 103 ± 7%
  Triglyceride, concentration as a function of control: 70 ± 5%
[4]; 60 mg/kg
  Cholesterol, concentration as a function of control: 99 ± 5%
  Lipid wt, concentration as a function of control: 106 ± 8%
  Neutral lipid, concentration as a function of control: 90 ± 6%
  Phospholipid, concentration as a function of control: 91 ± 8%
  Protein, concentration as a function of control: 104 ± 8%
  Triglyceride, concentration as a function of control: 74 ± 6%
[4]; 10 g/kg (so in the source)
  Cholesterol, concentration as a function of control: 83 ± 6%
  Lipid wt, concentration as a function of control: 92 ± 7%
  Neutral lipid, concentration as a function of control: 75 ± 6%
  Phospholipid, concentration as a function of control: 78 ± 6%
  Protein, concentration as a function of control: 98 ± 9%
  Triglyceride, concentration as a function of control: 48 ± 4%
Chylomicrons
  Cholesterol, concentration as a function of control: 77 ± 6%
  Neutral Lipids, concentration as a function of control: 69 ± 7%
  Phospholipids, concentration as a function of control: 65 ± 5%
  Protein, concentration as a function of control: 106 ± 6%
  Triglycerides, concentration as a function of control: 69 ± 6%
